Common to all, as to type: cell-based
The test system of experiment [1] is Mannheimia haemolytica MH 6357 (M7/2, reference strain, cattle infection strain). Description: MIC, broth-microdilution (CLSI VET01-A4), strain MH 6357. The conditions noted are these: Mannheimia haemolytica strain MH 6357, broth-microdilution; unit assumed. As to the method: (§1) For example, representative compounds were tested against ***, Mannheimia haemolytica and Pasteurella multocida, using the conventional broth-dilution assay.
(§2) The Minimum inhibitory concentrations (MIC) of compounds according to the invention for a number of veterinary bacterial pathogens were determined by the broth-microdilution method according to CLSI document VET01-A4.
(§3) Microdilution trays containing a doubling dilution series of the test compound were used for the tests. The MIC results were interpreted according to the CLSI documents VET01-S3. The lowest concentration of compound at which no visible growth (i.e. no turbidity) detected by the unaided eye was recorded as the MIC.
On the technique in general: Broth dilution looks for growth in wells or tubes with falling amounts of substance.

The test system of experiment [2] is Mannheimia haemolytica MH 6374 (ATCC 33396, reference strain). Description: MIC, broth-microdilution (CLSI VET01-A4), strain MH 6374. The conditions noted are these: Mannheimia haemolytica strain MH 6374, broth-microdilution; unit assumed. On the procedure: as §1, §2, §3
Experiment [3] concerns Mannheimia haemolytica MH 10720 (154, BRD field isolate). Description: MIC, broth-microdilution (CLSI VET01-A4), strain MH 10720. The conditions noted are these: Mannheimia haemolytica strain MH 10720, broth-microdilution; unit assumed. On the procedure: as §1, §2, §3
In experiment [4] the test system is Mannheimia haemolytica MH 12587 (1071, BRD field isolate, macrolide-resistance: erm+, E+). Description: MIC, broth-microdilution (CLSI VET01-A4), strain MH 12587. To be noted: Mannheimia haemolytica strain MH 12587, broth-microdilution; unit assumed. As to the method:
as §1, §2, §3

The test system of experiment [5] is Mannheimia haemolytica MH 13065 (XB0446-6003.9, BRD field isolate). Description: MIC, broth-microdilution (CLSI VET01-A4), strain MH 13065. The conditions noted are these: Mannheimia haemolytica strain MH 13065, broth-microdilution; unit assumed. As to the method: as §1, §2, §3
The subject of experiment [6] is Mannheimia haemolytica MH 13093 (XB0472-6014.1, BRD field isolate). Description: MIC, broth-microdilution (CLSI VET01-A4), strain MH 13093. The conditions noted are these: Mannheimia haemolytica strain MH 13093, broth-microdilution; unit assumed. On the procedure: as §1, §2, §3
The test system of experiment [7] is Pasteurella multocida PM 6267 (P 2225 (L386), reference strain, mouse infection strain). Description: MIC, broth-microdilution (CLSI VET01-A4), strain PM 6267. To be noted: Pasteurella multocida strain PM 6267, broth-microdilution; unit assumed. As to the method: as §1, §2, §3
For experiment [8], the system named is Pasteurella multocida PM 10775 (080130003051, BRD field isolate). Description: MIC, broth-microdilution (CLSI VET01-A4), strain PM 10775. To be noted: Pasteurella multocida strain PM 10775, broth-microdilution; unit assumed. On the procedure:
as §1, §2, §3

In experiment [9] the test system is Pasteurella multocida PM 12080 (IV102277-0093, BRD field isolate). Description: MIC, broth-microdilution (CLSI VET01-A4), strain PM 12080. To be noted: Pasteurella multocida strain PM 12080, broth-microdilution; unit assumed. As to the method: as §1, §2, §3

Structures are written as SMILES. ≈ marks a conversion by molar mass, not a printed value.

In turn, `O=C(N[C@@H](CO)C(=O)NO)c1ccc(C#Cc2ccc(CNCc3ccc(C(F)(F)F)cc3)cc2)cc1` [Compound 89] gave an MIC MH 6357 in [1] of 6.3 µg/mL (≈ 12.3 µM). The MIC MH 6374 in experiment [2] was 3.1 µg/mL (≈ 6.06 µM). Also, the MIC MH 10720 in experiment [3] came to 1.6 µg/mL (≈ 3.13 µM). In addition, in experiment [4], the MIC MH 12587 came to 12.5 µg/mL (≈ 24.4 µM). For the same molecule, the MIC MH 13065 in experiment [5] amounted to 6.3 µg/mL (≈ 12.3 µM). This molecule also gave an MIC MH 13093 in experiment [6] of 6.3 µg/mL (≈ 12.3 µM). The molecule further gave an MIC PM 6267 in experiment [7] of 0.4 µg/mL (≈ 0.782 µM). In addition, in experiment [8], the MIC PM 10775 is at most 0.1 µg/mL. The MIC PM 12080 in experiment [9] was determined as 1.6 µg/mL (≈ 3.13 µM).
For the molecule `O=C(N[C@@H](CO)C(=O)NO)c1ccc(C#Cc2ccc(CNCc3ccncc3)cc2)cc1` [Compound 90], in [1], the MIC MH 6357 turned out to be 3.1 µg/mL (≈ 6.97 µM). In addition, the MIC MH 6374 in experiment [2] was determined as 1.6 µg/mL (≈ 3.6 µM). The same molecule displayed an MIC MH 10720 in experiment [3] of 1.6 µg/mL (≈ 3.6 µM). In experiment [4], the MIC MH 12587 was 3.1 µg/mL (≈ 6.97 µM). The molecule also had an MIC MH 13065 in [5] of 1.6 µg/mL (≈ 3.6 µM). The molecule also displayed an MIC MH 13093 in [6] of 1.6 µg/mL (≈ 3.6 µM). For the same molecule, in experiment [7], the MIC PM 6267 was at most 0.1 µg/mL. This molecule also showed an MIC PM 10775 in experiment [8] of at most 0.1 µg/mL. The MIC PM 12080 in [9] stood at 0.8 µg/mL (≈ 1.8 µM).
In turn, `Cc1ccc(CNCc2ccc(C#Cc3ccc(C(=O)N[C@@H](CO)C(=O)NO)cc3)cc2)cc1C` [Compound 91] came in with an MIC MH 6357 in experiment [1] of 6.3 µg/mL (≈ 13.4 µM). Further, the MIC MH 6374 in experiment [2] came out at 3.1 µg/mL (≈ 6.57 µM). Besides, in experiment [3], the MIC MH 10720 is 1.6 µg/mL (≈ 3.39 µM). This molecule also yielded an MIC MH 12587 in experiment [4] of 12.5 µg/mL (≈ 26.5 µM). For the same molecule, the MIC MH 13065 in [5] was 6.3 µg/mL (≈ 13.4 µM). This molecule also returned an MIC MH 13093 in experiment [6] of 12.5 µg/mL (≈ 26.5 µM). The MIC PM 6267 in [7] came to 0.4 µg/mL (≈ 0.848 µM). The molecule also gave an MIC PM 10775 in experiment [8] of at most 0.1 µg/mL. In experiment [9], this molecule had an MIC PM 12080 of 1.6 µg/mL (≈ 3.39 µM).
Regarding `CC(C)[C@H](NC(=O)c1ccc(C#Cc2ccc(CNC3CC3)cc2)cc1)C(=O)NO` [Compound 92], the MIC MH 6357 in experiment [1] was determined as 0.8 µg/mL (≈ 1.97 µM). In experiment [2], this molecule returned an MIC MH 6374 of at most 0.1 µg/mL. In experiment [3], the MIC MH 10720 was at most 0.1 µg/mL. In [4], this molecule returned an MIC MH 12587 of 0.2 µg/mL (≈ 0.493 µM). Moreover, the MIC MH 13065 in [5] was at most 0.1 µg/mL. In addition, the MIC MH 13093 in [6] was found to be 0.2 µg/mL (≈ 0.493 µM). Besides, the MIC PM 6267 in experiment [7] is at most 0.1 µg/mL. In [8], this molecule returned an MIC PM 10775 of at most 0.1 µg/mL. For the same molecule, the MIC PM 12080 in experiment [9] is at most 0.1 µg/mL.
`CC(C)NCc1ccc(C#Cc2ccc(C(=O)N[C@H](C(=O)NO)C(C)C)cc2)cc1` [Compound 93] gave an MIC MH 6357 in experiment [1] of 6.3 µg/mL (≈ 15.5 µM). This molecule came in with an MIC MH 6374 in [2] of 6.3 µg/mL (≈ 15.5 µM). In addition, in experiment [3], the MIC MH 10720 stood at 3.1 µg/mL (≈ 7.61 µM). In experiment [4], this molecule returned an MIC MH 12587 of 12.5 µg/mL (≈ 30.7 µM). This molecule also yielded an MIC MH 13065 in [5] of 6.3 µg/mL (≈ 15.5 µM). In experiment [6], this molecule gave an MIC MH 13093 of 12.5 µg/mL (≈ 30.7 µM). The molecule also gave an MIC PM 6267 in experiment [7] of at most 0.1 µg/mL. The same molecule returned an MIC PM 10775 in experiment [8] of at most 0.1 µg/mL. This molecule showed an MIC PM 12080 in [9] of 1.6 µg/mL (≈ 3.93 µM).
`C=CCNCc1ccc(C#Cc2ccc(C(=O)N[C@H](C(=O)NO)C(C)C)cc2)cc1` [Compound 94] displayed an MIC MH 6357 in [1] of 12.5 µg/mL (≈ 30.8 µM). This molecule showed an MIC MH 6374 in experiment [2] of 0.8 µg/mL (≈ 1.97 µM). For the same molecule, the MIC MH 10720 in experiment [3] was determined as 0.8 µg/mL (≈ 1.97 µM). The same molecule yielded an MIC MH 12587 in experiment [4] of 1.6 µg/mL (≈ 3.95 µM). The same molecule showed an MIC MH 13065 in experiment [5] of 0.8 µg/mL (≈ 1.97 µM). In experiment [6], the MIC MH 13093 was 1.6 µg/mL (≈ 3.95 µM). Also, the MIC PM 6267 in [7] is at most 0.1 µg/mL. Besides, the MIC PM 10775 in experiment [8] is at most 0.1 µg/mL. Moreover, the MIC PM 12080 in experiment [9] stood at 0.8 µg/mL (≈ 1.97 µM).
In experiment [1], `CC(C)[C@H](NC(=O)c1ccc(C#Cc2ccc(CNCC(C)(C)C)cc2)cc1)C(=O)NO` [Compound 95] returned an MIC MH 6357 of 1.6 µg/mL (≈ 3.67 µM). This molecule also showed an MIC MH 6374 in experiment [2] of 3.1 µg/mL (≈ 7.12 µM). The molecule also had an MIC MH 10720 in [3] of 0.8 µg/mL (≈ 1.84 µM). Moreover, in experiment [4], the MIC MH 12587 amounted to 6.3 µg/mL (≈ 14.5 µM). In addition, the MIC MH 13065 in [5] stood at 3.1 µg/mL (≈ 7.12 µM). In addition, in experiment [6], the MIC MH 13093 is 3.1 µg/mL (≈ 7.12 µM). The same molecule displayed an MIC PM 6267 in [7] of at most 0.1 µg/mL. Further, in experiment [8], the MIC PM 10775 is at most 0.1 µg/mL. This molecule also returned an MIC PM 12080 in experiment [9] of 0.4 µg/mL (≈ 0.918 µM).
Turning to `COCCNCc1ccc(C#Cc2ccc(C(=O)N[C@H](C(=O)NO)C(C)C)cc2)cc1` [Compound 96], in [1], the MIC MH 6357 came out at 3.1 µg/mL (≈ 7.32 µM). Besides, the MIC MH 6374 in experiment [2] is 0.8 µg/mL (≈ 1.89 µM). The MIC MH 10720 in experiment [3] stood at 0.8 µg/mL (≈ 1.89 µM). In [4], this molecule gave an MIC MH 12587 of 12.5 µg/mL (≈ 29.5 µM). Further, in experiment [5], the MIC MH 13065 was found to be 1.6 µg/mL (≈ 3.78 µM). In experiment [6], this molecule had an MIC MH 13093 of 3.1 µg/mL (≈ 7.32 µM). In [7], the MIC PM 6267 is 0.2 µg/mL (≈ 0.472 µM). Also, the MIC PM 10775 in [8] is at most 0.1 µg/mL. Further, the MIC PM 12080 in experiment [9] worked out at 0.8 µg/mL (≈ 1.89 µM).
Consider `CCN(CC)Cc1ccc(C#Cc2ccc(C(=O)N[C@H](C(=O)NO)C(C)C)cc2)cc1` [Compound 97], for which the MIC MH 6357 in experiment [1] turned out to be 12.5 µg/mL (≈ 29.7 µM). Besides, the MIC MH 6374 in experiment [2] turned out to be 12.5 µg/mL (≈ 29.7 µM). Also, in experiment [3], the MIC MH 10720 was found to be 3.1 µg/mL (≈ 7.35 µM). In addition, the MIC MH 12587 in [4] is 12.5 µg/mL (≈ 29.7 µM). This molecule returned an MIC MH 13065 in [5] of 12.5 µg/mL (≈ 29.7 µM). Besides, in experiment [6], the MIC MH 13093 stood at 12.5 µg/mL (≈ 29.7 µM). The molecule further showed an MIC PM 6267 in experiment [7] of 0.2 µg/mL (≈ 0.474 µM). The MIC PM 10775 in experiment [8] was at most 0.1 µg/mL. The molecule further returned an MIC PM 12080 in experiment [9] of 0.8 µg/mL (≈ 1.9 µM).

The values above are taken from patent US11034650B2, “Compounds useful for treating a Mannheimia haemolytica or Histophilus somni infection” (Intervet Inc., priority 2016, dated 2021).
